# Measured values published in the supplement of paper PMC10307832.
# How the values were obtained:
# Experiment in all cases: relative viability (nuclei count vs DMSO), 5 days (fraction); higher = more cells survive
# [1] = compound: CC[C@H](CO)Nc1nc(NCc2ccccc2)c2ncn(C(C)C)c2n1 [Seliciclib]
# Procedure, shortened: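 Nuclei counted with MetaXpress define viability as the ratio of treated to vehicle wells, given as a median across plates. The lung cancer cell lines were in 1536-well plates, pinned with five √10-spaced library-drug doses and imaged at 4× after 5 days and Hoechst staining. Plates passed with control CV below 25% and at least one doubling.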
# [2] = compound: CC[C@H](CO)Nc1nc(NCc2ccccc2)c2ncn(C(C)C)c2n1 [Seliciclib] + CC(C)C[C@H](NC(=O)[C@H](Cc1ccccc1)NC(=O)c1cnccn1)B(O)O [Bortezomib] (partner 0.002 µM)
# Procedure, shortened: (§1)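 For relative viability, nuclei counts in treated wells were divided by those in vehicle wells. Lung cancer cell lines had been pin-tool dosed in 1536-well plates the day after seeding and cultured for 5 days, then fixed and stained in one step (final 0.05% Triton X-100, 1% formaldehyde, 1 ug/ml Hoechst) and imaged at 4×. Doses were one drug alone or a fixed anchor-drug dose plus five library-drug doses (not always all listed) in √10 steps, and values are duplicate-plate medians.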
# [3] = compound: CC[C@H](CO)Nc1nc(NCc2ccccc2)c2ncn(C(C)C)c2n1 [Seliciclib] + CC1(C)CCC(c2ccc(Cl)cc2)=C(CN2CCN(c3ccc(C(=O)NS(=O)(=O)c4ccc(N[C@H](CCN5CCOCC5)CSc5ccccc5)c(S(=O)(=O)C(F)(F)F)c4)cc3)CC2)C1 [Navitoclax] (partner 0.5 µM)
# Procedure, shortened: as §1
# [4] = compound: CC[C@H](CO)Nc1nc(NCc2ccccc2)c2ncn(C(C)C)c2n1 [Seliciclib] + COc1cc2c(Oc3ccc(NC(=O)C4(C(=O)Nc5ccc(F)cc5)CC4)cc3F)ccnc2cc1OCCCN1CCOCC1 [Foretinib] (partner 0.25 µM)
# Procedure, shortened: as §1
# [5] = compound: CC[C@H](CO)Nc1nc(NCc2ccccc2)c2ncn(C(C)C)c2n1 [Seliciclib] + CS(=O)(=O)CCNCc1ccc(-c2ccc3ncnc(Nc4ccc(OCc5cccc(F)c5)c(Cl)c4)c3c2)o1 [Lapatinib] (partner 2 µM)
# Procedure, shortened: as §1
# [6] = compound: CC[C@H](CO)Nc1nc(NCc2ccccc2)c2ncn(C(C)C)c2n1 [Seliciclib] + CS(=O)(=O)N1CCN(Cc2cc3nc(-c4cccc5[nH]ncc45)nc(N4CCOCC4)c3s2)CC1 [Pictilisib] (partner 1 µM)
# Procedure, shortened: as §1
# [7] = compound: CC[C@H](CO)Nc1nc(NCc2ccccc2)c2ncn(C(C)C)c2n1 [Seliciclib] + C[C@@H](Oc1cc(-c2cnn(C3CCNCC3)c2)cnc1N)c1c(Cl)ccc(F)c1Cl [Crizotinib] (partner 1 µM)
# Procedure, shortened: as §1
# [8] = compound: CC[C@H](CO)Nc1nc(NCc2ccccc2)c2ncn(C(C)C)c2n1 [Seliciclib] + C[C@]1(O)C[C@@H](c2nc(-c3ccc4ccc(-c5ccccc5)nc4c3)c3c(N)nccn32)C1 [Linsitinib] (partner 1 µM)
# Procedure, shortened: as §1
# [9] = compound: CC[C@H](CO)Nc1nc(NCc2ccccc2)c2ncn(C(C)C)c2n1 [Seliciclib] + Cc1nc(NC(=O)N2CCC[C@H]2C(N)=O)sc1-c1ccnc(C(C)(C)C(F)(F)F)c1 [Alpelisib] (partner 2 µM)
# Procedure, shortened: as §1
# [10] = compound: CC[C@H](CO)Nc1nc(NCc2ccccc2)c2ncn(C(C)C)c2n1 [Seliciclib] + O=C(c1cc(Cc2n[nH]c(=O)c3ccccc23)ccc1F)N1CCN(C(=O)C2CC2)CC1 [Olaparib] (partner 8 µM)
# Procedure, shortened: as §1
cell line,measurement,setting,value
NCI-H1299,relative viability,[1]; 0.08 µM,0.959
same,relative viability,[1]; 0.253 µM,1.12
same,relative viability,[1]; 0.8 µM,1.03
same,relative viability,[1]; 2.53 µM,1.02
same,relative viability,[1]; 8 µM,1.03
same,relative viability,[2]; first compound 0.08 µM,0.995
same,relative viability,[2]; first compound 0.253 µM,1.1
same,relative viability,[2]; first compound 0.8 µM,0.985
same,relative viability,[2]; first compound 2.53 µM,1.04
same,relative viability,[2]; first compound 8 µM,0.992
same,relative viability,[3]; first compound 0.08 µM,0.996
same,relative viability,[3]; first compound 0.253 µM,1.14
same,relative viability,[3]; first compound 0.8 µM,1.02
same,relative viability,[3]; first compound 2.53 µM,1.03
same,relative viability,[3]; first compound 8 µM,1
same,relative viability,[4]; first compound 0.08 µM,1.11
same,relative viability,[4]; first compound 0.253 µM,1.2
same,relative viability,[4]; first compound 0.8 µM,1.08
same,relative viability,[4]; first compound 2.53 µM,1.07
same,relative viability,[4]; first compound 8 µM,1.09
same,relative viability,[5]; first compound 0.08 µM,0.953
same,relative viability,[5]; first compound 0.253 µM,1.06
same,relative viability,[5]; first compound 0.8 µM,0.997
same,relative viability,[5]; first compound 2.53 µM,0.962
same,relative viability,[5]; first compound 8 µM,0.948
same,relative viability,[6]; first compound 0.08 µM,0.792
same,relative viability,[6]; first compound 0.253 µM,0.765
same,relative viability,[6]; first compound 0.8 µM,0.72
same,relative viability,[6]; first compound 2.53 µM,0.841
same,relative viability,[6]; first compound 8 µM,0.656
same,relative viability,[7]; first compound 0.08 µM,0.983
same,relative viability,[7]; first compound 0.253 µM,1.07
same,relative viability,[7]; first compound 0.8 µM,0.935
same,relative viability,[7]; first compound 2.53 µM,0.993
same,relative viability,[7]; first compound 8 µM,0.943
same,relative viability,[8]; first compound 0.08 µM,0.981
same,relative viability,[8]; first compound 0.253 µM,1.14
same,relative viability,[8]; first compound 0.8 µM,1.09
same,relative viability,[8]; first compound 2.53 µM,0.956
same,relative viability,[8]; first compound 8 µM,1
same,relative viability,[9]; first compound 0.08 µM,1.02
same,relative viability,[9]; first compound 0.253 µM,1.17
same,relative viability,[9]; first compound 0.8 µM,1.1
same,relative viability,[9]; first compound 2.53 µM,1.08
same,relative viability,[9]; first compound 8 µM,0.986
same,relative viability,[10]; first compound 0.08 µM,0.967
same,relative viability,[10]; first compound 0.253 µM,1.08
same,relative viability,[10]; first compound 0.8 µM,0.957
same,relative viability,[10]; first compound 2.53 µM,0.949
same,relative viability,[10]; first compound 8 µM,0.954
Calu-6,relative viability,[1]; 0.08 µM,0.991
same,relative viability,[1]; 0.253 µM,1.13
same,relative viability,[1]; 0.8 µM,1.01
same,relative viability,[1]; 2.53 µM,1.01
same,relative viability,[1]; 8 µM,0.891
same,relative viability,[2]; first compound 0.08 µM,0.969
same,relative viability,[2]; first compound 0.253 µM,0.938
same,relative viability,[2]; first compound 0.8 µM,1.12
same,relative viability,[2]; first compound 2.53 µM,1.01
same,relative viability,[2]; first compound 8 µM,0.989
same,relative viability,[3]; first compound 0.08 µM,0.796
same,relative viability,[3]; first compound 0.253 µM,0.933
same,relative viability,[3]; first compound 0.8 µM,0.939
same,relative viability,[3]; first compound 2.53 µM,0.895
same,relative viability,[3]; first compound 8 µM,0.825
same,relative viability,[4]; first compound 0.08 µM,0.847
same,relative viability,[4]; first compound 0.253 µM,0.686
same,relative viability,[4]; first compound 0.8 µM,0.945
same,relative viability,[4]; first compound 2.53 µM,0.892
same,relative viability,[4]; first compound 8 µM,0.733
same,relative viability,[5]; first compound 0.08 µM,0.993
same,relative viability,[5]; first compound 0.253 µM,1.13
same,relative viability,[5]; first compound 0.8 µM,1.08
same,relative viability,[5]; first compound 2.53 µM,1.08
same,relative viability,[5]; first compound 8 µM,0.934
same,relative viability,[6]; first compound 0.08 µM,0.93
same,relative viability,[6]; first compound 0.253 µM,0.969
same,relative viability,[6]; first compound 0.8 µM,0.937
same,relative viability,[6]; first compound 2.53 µM,0.917
same,relative viability,[6]; first compound 8 µM,0.759
same,relative viability,[7]; first compound 0.08 µM,0.773
same,relative viability,[7]; first compound 0.253 µM,0.846
same,relative viability,[7]; first compound 0.8 µM,0.825
same,relative viability,[7]; first compound 2.53 µM,0.956
same,relative viability,[7]; first compound 8 µM,0.668
same,relative viability,[8]; first compound 0.08 µM,1.05
same,relative viability,[8]; first compound 0.253 µM,0.996
same,relative viability,[8]; first compound 0.8 µM,0.95
same,relative viability,[8]; first compound 2.53 µM,1.01
same,relative viability,[8]; first compound 8 µM,0.899
same,relative viability,[9]; first compound 0.08 µM,0.942
same,relative viability,[9]; first compound 0.253 µM,0.993
same,relative viability,[9]; first compound 0.8 µM,1.04
same,relative viability,[9]; first compound 2.53 µM,1.01
same,relative viability,[9]; first compound 8 µM,0.809
same,relative viability,[10]; first compound 0.08 µM,0.602
same,relative viability,[10]; first compound 0.253 µM,0.658
same,relative viability,[10]; first compound 0.8 µM,0.565
same,relative viability,[10]; first compound 2.53 µM,0.624
same,relative viability,[10]; first compound 8 µM,0.532
